Data published in patent US20240218009A1, “NOVEL FORMS OF CYCLIC DINUCLEOTIDE COMPOUNDS” (Merck Sharp & Dohme LLC, priority 2021, published 2024).
Read-outs that look alike come from different tables or passages of the source.

Details: pH 6.0, approx. 20-30 mg/mL, stirred at ambient conditions for minimum 16 hours, precipitate analysed by XRPD
Method: Equilibrium solubility experiments were conducted by mixing Compound A and the solution of interest at a concentration of approximately 20-30 mg/mL (Table 1). The solution of interest contained either 50 mM L-histidine or phosphate buffer (pH: 5.8<x<6.3). Additional Compound A was added until a cloudy solution was maintained. The samples were stirred at ambient conditions for a minimum of 16 hours. At the conclusion of the solubility measurements, solutions were clarified by centrifugation. The wet precipitated material was transferred to a 96-well transmission XRPD sample plate and allowed to dry to room temperature prior to XRPD analysis.
X-ray powder diffraction patterns for the solid phases of Compound A were generated on a Philips Analytical X'Pert PRO X-ray Diffraction System with a high throughput stage. A Cu K-Alpha radiation source was used. […] The experiments were analyzed at ambient conditions.

Nc1nc2c(ncn2[C@@H]2O[C@@H]3CO[P@@](O)(=S)O[C@H]4[C@H](F)[C@H](n5cnc6c(N)ncnc65)O[C@@H]4CO[P@@](O)(=S)O[C@@H]2[C@@H]3F)c(=O)[nH]1.[Na] [Crystalline, mono-sodium salt, Monosodium salt of 2-amino-9-[(2R,5R,7R,8S,10R,12aR,14R,15S,15aR,16R)-14-(6-amino-9H-purin-9-yl)-15,16-difluoro-2,10-dihydroxy-2,10-disulfidooctahydro-12H-5,8-methanofuro [3,2-1][1,3,6,9,11,2,10]pentaoxa-diphosphacyclotetradecin-7-yl]-1,9-dihydro-6H-purin-6-one]
Compound A Terminal Phase (50 mM L-histidine buffer): Form 1 | Compound A Terminal Phase (50 mM phosphate buffer): Crystalline mono-
